The text below walks through data of patent US20100003217A1, “Compounds and Pharmaceutical Compositions for the Treatment of Viral Infections” (priority 2008, published 2010).

SMILES strings stand for the structures.

Data set [1] concerns HCV genotype 1b replicon (GS4.1 cells). The data set is described as follows: HCV replicon assay (NS4A ELISA). The format is cell-based, hepatitis C virus. The note with it: 3 days. As to the method: The biological activity of Compound 1, diastereomer 1 and diastereomer 2 was measured by monitoring expression of the NS4A protein by enzyme-linked immunosorbent assay (ELISA) and by luciferase assay as described below:
The HCV replicon assay measures the ability of a test compound to inhibit HCV replication in cell culture after 3 days of treatment in a human hepatoma cell line (Huh-7) bearing the HCV genotype 1b replicon (GS4.1 cells). The inhibition of HCV replication was measured by quantification of viral NS4A protein using an enzyme-linked immunosorbent assay (ELISA). […] Additionally, the replicon contains the neomycin phosphotransferase gene under the control of the HCV promoter (Source: Dr. Christoph Seeger, Fox Chase Cancer Center, Philadelphia, Pa.).
The NS4A ELISA assay is summarized as follows. Ninety-six-well tissue culture plates were seeded with GS4.1 cells. Antiviral compound solutions were made up freshly in medium as 2×-concentrated stocks. Eight additional 3-fold drug dilutions were prepared from these stocks in medium for a total of 9 dilutions. At least four hours after GS4.1 cells were seeded, drug treatment was initiated by adding one volume of each 2× concentrated drug dilution to one volume of cells/medium in the tissue culture plates. Cells were then incubated for 3 days at 37° C./5% CO2.
The media/compound was then removed from the plates and cells were fixed with acetone:methanol, washed three times with a wash solution, and then blocked for 1 hour with 10% fetal bovine serum in a balanced salt solution. Cells were washed three times and incubated with an anti-hepatitis C NS4A monoclonal antibody (Virogen Corp.) for 2 hours at 37° C. […] The reaction was stopped with diluted sulfuric acid (Mallinckrodt Chemicals) and absorbance measured on a Victor^3V 1420 multilabel counter (Perkin Elmer). EC50 values were calculated from dose response curves from the resulting best-fit equations determined by Microsoft Excel and XLfit 4.1 software.

The subject of data set [2] is HCV genotype 1b replicon (Zluc cells). Kind of data set: HCV luciferase replicon assay. The format is cell-based, hepatitis C virus. The note with it: 3 days. The procedure:
The HCV luciferase replicon assay measures the ability of a test compound to inhibit HCV replication in cell culture after 3 days of treatment in a human hepatoma cell line (Huh-7) bearing the HCV genotype 1b replicon and a luciferase-neomycin phosphotransferase fusion gene. The inhibition of HCV replication was measured by quantification of luciferase protein expression. The HCV luciferase replicon was constructed by fusing a luciferase gene to the amino terminus of the neomycin phosphotransferase gene of the ZS11 HCV replicon. The ZS11 HCV replicon (Zhu Q, Guo J-T, and Seeger C, 2003) is derived from the SP1 replicon, but contains three cell culture-adapted mutations: E1202G (NS3), S22041 (NS5A), and D2254E (NS5A). These mutations allow for efficient in vitro replication. The luciferase reporter gene was amplified from the pGL4.13[luc2/SV40] vector (Promega Corp.). The replicon resulting from the luciferase-neomycin fusion (ZS11-luc) was stably-transfected into Huh-7 cells, yielding the Zluc cell line.
The luciferase replicon assay is summarized as follows: Solid white 96-well tissue culture plates (BD Falcon) were seeded with Zluc cells. Antiviral compound solutions were made up freshly in medium as 2×-concentrated stocks. Eight additional 3-fold drug dilutions were prepared from these stocks in medium for a total of 9 dilutions. At least four hours after Zluc cells were seeded, drug treatment was initiated by adding one volume of each 2×-concentrated drug dilution to one volume of cells/medium in the tissue culture plates. Cells were then incubated for 3 days at 37° C./5% CO2.
The media/compound was then removed from the plates and the ONE-glo Luciferase assay reagent (Promega) was added to each well. The assay plates were shaken for 3 minutes at room temperature and luciferase activity for each well was measured with a 1 sec read time on the Victor^3V multilabel counter using a 700 nm cut-off filter (Perkin Elmer). EC50 values were calculated from dose response curves from the resulting best-fit equations determined by Microsoft Excel and XLfit 4.1 software.

The subject of a further data set is GS4.1 cells. Kind of data set: Cytotoxicity assay (MTS), GS4.1 cells. It is filed as cell-based, human. The note with it: 3 days (NS4A-ELISA Assay). As to the method: The cytotoxicity assay measures the viability of cells after treatment with a test compound for 3 days in either GS4.1 cells or Zluc cells. […] The cytotoxicity assay is summarized as follows. Ninety-six-well tissue culture plates were seeded with GS4.1 or Zluc cells. Antiviral compound solutions were made up freshly in medium as 2×-concentrated stocks. Eight additional 3-fold drug dilutions were prepared from these stocks in medium for a total of 9 dilutions. At least four hours after the cells were seeded, drug treatment was initiated by adding one volume of each 2×-concentrated drug dilution to one volume of cells/medium in the tissue culture plates. Cells were then incubated for 3 days at 37° C./5% CO2. After 3 days of treatment, the CellTiter 96® Aqueous One Solution cell proliferation assay (Promega) was performed by adding the MTS solution to each well. The plates were then incubated at 37° C./5% CO2 for 3.5 hours. Plates were then read in a Victor^3V 1420 multilabel counter (Perkin Elmer) and CC50 concentrations were determined using Microsoft Excel and XLfit 4.1 software.

The nature of data set [3]: Stability in rat liver microsomes. The format is in vitro ADME. The note with it: rat microsomes 1 mg/mL, 60 min, 50 μM. The procedure: (§1) Disappearance of parent Compound 1 was used to evaluate the in vitro metabolism thereof. Relative levels of unchanged Compound 1 were measured by HPLC-UV method 1. Residual Compound 1 is reported as percent difference from time zero or control. The HPLC-UV system was as follows:
(§2) Incubations with liver microsomes or cytosol were conducted in a final volume of 0.1 mL per incubation time point. […] DMSO (final DMSO concentration was 0.1%) was incubated at 37° C. from 0-60 min with pooled microsomal protein (1.0 mg/mL), suspended in incubation buffer (0.1 M potassium phosphate, pH 7.4, 5 mM MgCl2, and 0.1 mM EDTA). The microsomal reaction was initiated by the addition of NADPH (3 mM final concentration). Incubations with (a) no protein or (b) no NADPH served as controls. Reactions were terminated by the addition of 0.2 mL of stop solution (acetonitrile). The samples were vortex-mixed for 30 sec and then centrifuged at 10,000×g for 10 min. The supernatant was dried using a Labconco CentriVap concentrator and the dry residue reconstituted in water, transferred to an HPLC glass vial and analyzed by HPLC-UV method 1 (described above).
(§3) Metabolic stability of the proposed metabolites was conducted by incubating the chemically synthesized standards Compound 2, Compound 4 and Compound 3 as described above for Compound 1. When possible, formation of Compound 5 was verified by incubating samples with alkaline phosphatase (10 U) for 60 min at 37° C.

Data set [4] can be described thus: Stability in monkey liver microsomes. The format is in vitro ADME. The note with it: monkey microsomes 1 mg/mL, 60 min, 50 μM. As to the method:
as §1, §2, §3

A short description of data set [5]: Stability in human liver microsomes. The note with it: human microsomes 1 mg/mL, 60 min, 50 μM. It is filed as in vitro ADME. As to the method: as §1
Incubations with liver microsomes or cytosol were conducted in a final volume of 0.1 mL per incubation time point. […] The microsomal reaction was initiated by the addition of NADPH (3 mM final concentration). Incubations with (a) no protein or (b) no NADPH served as controls. Reactions were terminated by the addition of 0.2 mL of stop solution (acetonitrile). The samples were vortex-mixed for 30 sec and then centrifuged at 10,000×g for 10 min. The supernatant was dried using a Labconco CentriVap concentrator and the dry residue reconstituted in water, transferred to an HPLC glass vial and analyzed by HPLC-UV method 1 (described above).
as §3

Data set [6] can be described thus: Incubation with rat liver cytosol. The format is in vitro ADME. The note with it: rat cytosol 1 mg/mL, 2 hours, 10 μM. The procedure:
(§4) Pooled liver cytosol (1.0 mg protein/mL) suspended in incubation buffer (0.1 M potassium phosphate, pH 7.4) was incubated for 2 hours at 37° C. with 10 μM Compound 1 from a stock solution in DMSO (final DMSO concentration was 0.1%); reaction was initiated with the addition of test article. Incubations with no protein served as control. Reactions were terminated by the addition of 0.1 mL of stop solution (acetonitrile). The samples were vortex-mixed for 30 sec and then centrifuged at 10,000×g for 10 min. The supernatant was dried using a Labconco CentriVap concentrator and the dry residue reconstituted in water, transferred to an HPLC glass vial and analyzed by HPLC-UV method 2 (described above).
as §3

Data set [7] in a line: Incubation with monkey liver cytosol. The format is in vitro ADME. The note with it: monkey cytosol 1 mg/mL, 2 hours, 10 μM. As to the method: as §4, §3
Data set [8] can be described thus: Incubation with human liver cytosol. The format is in vitro ADME. The note with it: human cytosol 1 mg/mL, 2 hours, 10 μM. The procedure:
as §4, §3

The subject of the next data set is pig liver esterase. The data set is described as follows: Incubation with pig liver esterase. It is filed as in vitro ADME. The note with it: Esterase 14 U, 60 min, 10 μM. As to the method: as §4, with “Pig” for “Pooled”, “esterase (14 U)” for “cytosol (1.0 mg protein/mL)”, “60 min” for “2 hours”, “controls.” for “control.”
as §3

For the molecule `CC(C)(CO)C(=O)SCCOP(=O)(NCc1ccccc1)OC[C@H]1O[C@@H](n2cnc3c(=O)[nH]c(N)nc32)[C@](C)(O)[C@@H]1O` (single isomer, unassigned; diastereomer 1) [Diastereomer 1], the EC50 was found to be 704 ± 372 nM in [1] and 165 ± 23 nM in data set [2]. The same molecule displayed a CC50 with GS4.1 cells of over 100000 nM.
Take `C[C@@]1(O)[C@H](O)[C@@H](COP(N)(=O)O)O[C@H]1n1cnc2c(=O)[nH]c(N)nc21` [Compound 4, {9-[(2R)2-C-methyl-β-D-ribo-furanosyl]-guanin}-5′-yl phosphoramidate]: the “% Residual compound following incubation with liver microsomes” value in data set [3] (NADPH) came out at 89%; in data set [3] (No Cofactor) it was 100%; in data set [4] (NADPH) it was 83%; in data set [4] (No Cofactor), 100%; in data set [5] (NADPH) it was 93%; in [5] (No Cofactor), 100%. For the same molecule, the “Residual compound following incubation with liver cytosol” value in [6] was determined as 101%; in data set [7], 103%; in [8], 100%. The “Residual compound following incubation with pig liver esterase” value with pig liver esterase came to 100%.
